31 molecules from ChEMBL document CHEMBL1148644, “Human PEPT1 pharmacophore distinguishes between dipeptide transport and binding” (J Med Chem, 2006) can be followed below.

The structures appear in SMILES notation. Where a SMILES comes first, the peptide text is derived from it. Where only a bound is given, the exact number is not on record here.

One assay concerns the target T1, Solute carrier family 15 member 1 (Homo sapiens, UniProt P46059).
T1 sequence (P46059 whole entry): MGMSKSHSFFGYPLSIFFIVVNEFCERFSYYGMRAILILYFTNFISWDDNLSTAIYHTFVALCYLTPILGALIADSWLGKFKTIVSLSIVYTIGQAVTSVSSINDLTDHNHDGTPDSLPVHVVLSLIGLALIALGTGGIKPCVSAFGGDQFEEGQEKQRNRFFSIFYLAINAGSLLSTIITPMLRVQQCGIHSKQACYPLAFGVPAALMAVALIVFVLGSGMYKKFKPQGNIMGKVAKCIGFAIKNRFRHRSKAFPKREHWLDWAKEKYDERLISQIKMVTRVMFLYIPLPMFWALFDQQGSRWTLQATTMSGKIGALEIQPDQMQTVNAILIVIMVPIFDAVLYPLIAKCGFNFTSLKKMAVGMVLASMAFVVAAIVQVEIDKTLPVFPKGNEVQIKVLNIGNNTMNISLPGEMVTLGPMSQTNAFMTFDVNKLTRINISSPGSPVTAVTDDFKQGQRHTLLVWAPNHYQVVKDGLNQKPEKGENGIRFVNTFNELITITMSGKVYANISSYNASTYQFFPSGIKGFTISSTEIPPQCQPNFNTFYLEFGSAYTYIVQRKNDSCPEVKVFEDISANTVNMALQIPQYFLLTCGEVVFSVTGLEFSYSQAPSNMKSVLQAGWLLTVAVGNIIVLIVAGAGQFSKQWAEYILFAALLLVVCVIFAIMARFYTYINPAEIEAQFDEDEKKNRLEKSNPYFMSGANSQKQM
As to the kind of experiment: Activation of human PEPT1 expressed in MDCK cells.
Conditions: not given
The assay is classed as functional, cell-based.
A word on the EC50: it is the concentration at which the effect is half-maximal. Higher therefore signals a need for much substance. As for `NCCCC[C@H](N)C(=O)N1CCC[C@@H]1C(=O)O`, a half-maximal response (EC50) required 190 µM.

Turning to `O=C(O)C[C@H](NC(=O)[C@@H]1CCCN1)C(=O)O` (H-Pro-Asp-OH), the EC50 was over 5000 µM.

The molecule `O=C(O)[C@H](CO)NC(=O)[C@@H]1CCCN1` (H-Pro-Ser-OH) had an EC50 of 1600 µM.

In turn, `C[C@H](N)C(=O)N[C@@H](C)C(=O)O` (H-Ala-Ala-OH) displayed an EC50 of 80 µM. Against the preceding molecule, the EC50 is about 20-fold lower.

For `N[C@@H](Cc1c[nH]cn1)C(=O)NCC(=O)O` (H-His-Gly-OH), the EC50 turned out to be 280 µM.

In turn, `NCCCC[C@H](N)C(=O)NCC(=O)O` (H-Lys-Gly-OH) had a concentration for a half-maximal effect (EC50) of 320 µM.

With `CC(C)C[C@H](NC(=O)[C@@H](N)CC(C)C)C(=O)O` [LEU-LEU], a half-maximal effect (EC50) was put at 80 µM.

In turn, `NCC(=O)N[C@@H](Cc1c[nH]cn1)C(=O)O` (H-Gly-His-OH) registered an EC50 of 400 µM. This EC50 is about 5-fold higher than that of the molecule before.

Consider `NCCCC[C@H](NC(=O)CN)C(=O)O` (H-Gly-Lys-OH), for which it took 750 µM to reach a half-maximal effect (EC50).

For `N[C@@H](CC(=O)O)C(=O)N[C@@H](Cc1c[nH]c2ccccc12)C(=O)O` (H-Asp-Trp-OH), the EC50 stood at 470 µM.

In turn, `C[C@H](N)C(=O)N[C@@H](CC(=O)O)C(=O)O` (H-Ala-Asp-OH) gave an EC50 of 230 µM.

In turn, `CC(C)[C@H](N)C(=O)N[C@H](C(=O)N[C@H](C(=O)O)C(C)C)C(C)C` (H-Val-Val-Val-OH) registered an EC50 of 210 µM.

With `C[C@H](NC(=O)[C@@H](N)Cc1ccccc1)C(N)=O`, the midpoint of the response, the EC50, lay at 850 µM.

On to `CC(C)C[C@H](NC(=O)CN)C(=O)NCC(=O)O` (H-Gly-Leu-Gly-OH), for which the EC50 was 210 µM.

Regarding `CC(C)[C@H](NC(=O)[C@@H](N)CC(=O)O)C(=O)O` (H-Asp-Val-OH), the EC50 worked out at 690 µM. Compared with the last molecule, the EC50 is about 3.3-fold higher.

As to `CC(C)C[C@H](NC(=O)CN)C(=O)N[C@@H](Cc1ccccc1)C(=O)O` (H-Gly-Leu-Phe-OH), a half-maximal response (EC50) required 280 µM.

On to `NCC(=O)N[C@@H](Cc1ccccc1)C(=O)O` (H-Gly-Phe-OH), for which the EC50 came out at 130 µM. This EC50 is about 2.2-fold lower than that of the molecule before.

The molecule `N[C@@H](CCC(=O)O)C(=O)N[C@@H](CCC(=O)O)C(=O)O` (H-Glu-Glu-OH) displayed an EC50 of 1000 µM. Against the preceding molecule, the EC50 is about 7.7-fold higher.

The molecule `NCCCC[C@H](N)C(=O)N[C@@H](CCC(=O)O)C(=O)O` (H-Lys-Glu-OH) gave an EC50 of 530 µM.

In turn, `C[C@H](NC(=O)[C@@H](N)Cc1c[nH]c2ccccc12)C(=O)O` (H-Trp-Ala-OH) showed an EC50 of 100 µM.

Turning to `O=C(O)[C@@H]1CCCN1C(=O)[C@@H]1CCCN1` (H-Pro-Pro-OH), the EC50 was found to be 700 µM.

`NCC(=O)N[C@@H](Cc1c[nH]c2ccccc12)C(=O)O` (H-Gly-Trp-OH): the EC50 turned out to be 330 µM.

Take `NC(N)=NCCC[C@H](N)C(=O)NCC(=O)O` (H-Arg-Gly-OH): the EC50 was 270 µM.

`C[C@H](N)C(=O)N[C@@H](Cc1c[nH]c2ccccc12)C(=O)O` (H-Ala-Trp-OH) had an EC50 of 80 µM.

On to `N[C@@H](CO)C(=O)N[C@@H](CO)C(=O)O` (H-Ser-Ser-OH), for which a half-maximal response (EC50) required 140 µM.

With `NCC(=O)NCC(=O)O` (H-Gly-Gly-OH), the EC50 was determined as 480 µM.

In turn, `N[C@@H](Cc1c[nH]cn1)C(=O)N[C@@H](Cc1c[nH]c2ccccc12)C(=O)O` gave an EC50 of 190 µM.

As to `N[C@@H](Cc1c[nH]c2ccccc12)C(=O)NCC(=O)O` (H-Trp-Gly-OH), the EC50 came to 260 µM. The EC50 values of the last two molecules are within 1.5-fold of each other.

Turning to `O=C(O)CC[C@H](NC(=O)[C@@H]1CCCN1)C(=O)O` (H-Pro-Glu-OH), the EC50 is over 5000 µM.

Regarding `N[C@@H](Cc1ccc(O)cc1)C(=O)NCC(=O)O`, the EC50 was found to be 240 µM.

In the case of `C[C@H](N)C(=O)N[C@@H](CCCCN)C(=O)O` (H-Ala-Lys-OH), the EC50 stood at 220 µM.

Another assay deals with T1, Solute carrier family 15 member 1. As to the kind of experiment: Binding affinity to human PEPT1 assessed as inhibition of [14C]Gly-Sar uptake in MDCK cells. The assay is classed as functional, cell-based. To be noted: read-out: IC50.
Broadly, the IC50 is the midpoint of a concentration-inhibition curve. As for `NCCCC[C@H](N)C(=O)N1CCC[C@@H]1C(=O)O`, the IC50 is 390 µM.

For `O=C(O)C[C@H](NC(=O)[C@@H]1CCCN1)C(=O)O` (H-Pro-Asp-OH), the IC50 was 9160 µM.

As for `O=C(O)[C@H](CO)NC(=O)[C@@H]1CCCN1` (H-Pro-Ser-OH), the IC50 is over 16000 µM.

For `C[C@H](N)C(=O)N[C@@H](C)C(=O)O` (H-Ala-Ala-OH), the IC50 came out at 250 µM.

On to `N[C@@H](Cc1c[nH]cn1)C(=O)NCC(=O)O` (H-His-Gly-OH), for which the IC50 came out at 340 µM.

Regarding `NCCCC[C@H](N)C(=O)NCC(=O)O` (H-Lys-Gly-OH), the IC50 was determined as 380 µM.

On to `CC(C)C[C@H](NC(=O)[C@@H](N)CC(C)C)C(=O)O` [LEU-LEU], for which the IC50 worked out at 170 µM.

On to `NCC(=O)N[C@@H](Cc1c[nH]cn1)C(=O)O` (H-Gly-His-OH), for which the IC50 came out at 810 µM.

For `NCCCC[C@H](NC(=O)CN)C(=O)O` (H-Gly-Lys-OH), the IC50 came out at 1250 µM.

For `N[C@@H](CC(=O)O)C(=O)N[C@@H](Cc1c[nH]c2ccccc12)C(=O)O` (H-Asp-Trp-OH), the IC50 was found to be 1310 µM.

As to `C[C@H](N)C(=O)N[C@@H](CC(=O)O)C(=O)O` (H-Ala-Asp-OH), the IC50 amounted to 450 µM.

On to `CC(C)[C@H](N)C(=O)N[C@H](C(=O)N[C@H](C(=O)O)C(C)C)C(C)C` (H-Val-Val-Val-OH), for which the IC50 worked out at 230 µM.

In the case of `C[C@H](NC(=O)[C@@H](N)Cc1ccccc1)C(N)=O`, the IC50 was found to be 2990 µM.

Take `CC(C)C[C@H](NC(=O)CN)C(=O)NCC(=O)O` (H-Gly-Leu-Gly-OH): the IC50 was 240 µM.

In the case of `CC(C)[C@H](NC(=O)[C@@H](N)CC(=O)O)C(=O)O` (H-Asp-Val-OH), the IC50 worked out at 310 µM.

Take `CC(C)C[C@H](NC(=O)CN)C(=O)N[C@@H](Cc1ccccc1)C(=O)O` (H-Gly-Leu-Phe-OH): the IC50 is 980 µM.

For the molecule `NCC(=O)N[C@@H](Cc1ccccc1)C(=O)O` (H-Gly-Phe-OH), the IC50 stood at 170 µM.

Consider `N[C@@H](CCC(=O)O)C(=O)N[C@@H](CCC(=O)O)C(=O)O` (H-Glu-Glu-OH), for which the IC50 is 620 µM.

Regarding `NCCCC[C@H](N)C(=O)N[C@@H](CCC(=O)O)C(=O)O` (H-Lys-Glu-OH), the IC50 is 820 µM.

In the case of `C[C@H](NC(=O)[C@@H](N)Cc1c[nH]c2ccccc12)C(=O)O` (H-Trp-Ala-OH), the IC50 amounted to 260 µM.

For the molecule `O=C(O)[C@@H]1CCCN1C(=O)[C@@H]1CCCN1` (H-Pro-Pro-OH), the IC50 worked out at 800 µM.

On to `NCC(=O)N[C@@H](Cc1c[nH]c2ccccc12)C(=O)O` (H-Gly-Trp-OH), for which the IC50 amounted to 520 µM.

With `NC(N)=NCCC[C@H](N)C(=O)NCC(=O)O` (H-Arg-Gly-OH), the IC50 was found to be 390 µM.

Consider `C[C@H](N)C(=O)N[C@@H](Cc1c[nH]c2ccccc12)C(=O)O` (H-Ala-Trp-OH), for which the IC50 came to 260 µM.

Take `N[C@@H](CO)C(=O)N[C@@H](CO)C(=O)O` (H-Ser-Ser-OH): the IC50 is 130 µM.

With `NCC(=O)NCC(=O)O` (H-Gly-Gly-OH), the IC50 is 820 µM.

For `N[C@@H](Cc1c[nH]cn1)C(=O)N[C@@H](Cc1c[nH]c2ccccc12)C(=O)O`, the IC50 amounted to 950 µM.

Turning to `N[C@@H](Cc1c[nH]c2ccccc12)C(=O)NCC(=O)O` (H-Trp-Gly-OH), the IC50 came out at 730 µM.

Turning to `O=C(O)CC[C@H](NC(=O)[C@@H]1CCCN1)C(=O)O` (H-Pro-Glu-OH), the half-maximal inhibitory concentration (IC50) turned out to be 12300 µM.

In the case of `N[C@@H](Cc1ccc(O)cc1)C(=O)NCC(=O)O`, the IC50 amounted to 330 µM.

Turning to `C[C@H](N)C(=O)N[C@@H](CCCCN)C(=O)O` (H-Ala-Lys-OH), the IC50 came to 280 µM.
